According to ChEMBL document CHEMBL1201862, “PubChem BioAssay data set” (2004):
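Where inhibition never reached the appropriate level, the endpoint shown equals the highest concentration tested. Otherwise, values were interpolated linearly from a five-concentration, 48-hour dose response in 96-well plates. Here, GI50 denotes the concentration required for 50% inhibition of growth.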 Active and inactive are the calls of the source. Rule as the data show it: active = GI50 up to about 1.1 µM and inactive = higher.

Assays:
Assay in all cases: NCI tumour cell line growth inhibition, 48 h
[1] = test system: M19-MEL
[2] = test system: RXF 631
[3] = test system: XF498
[4] = test system: LXFL 529
[5] = test system: DMS-114
[6] = test system: HOP-18
[7] = test system: DLD-1
[8] = test system: MDA-MB-231
[9] = test system: Hs-578T

Structure (SMILES)	GI50 [1]	GI50 [2]	GI50 [3]	GI50 [4]	GI50 [5]	GI50 [6]	GI50 [7]	GI50 [8]	GI50 [9]
O=C(CC1Sc2ccccc2NC1=O)Nc1ccc(Cl)cc1 (stereo not given)	> 100 µM (inactive)	83.6 µM (inactive)	> 100 µM (inactive)	> 100 µM (inactive)	48.4 µM (inactive)	20 µM (inactive)	> 100 µM (inactive)		
CS(=O)(=O)OCCCNCCCOS(C)(=O)=O	1580 µM (inactive)		938 µM (inactive)		849 µM (inactive)	1420 µM (inactive)	2810 µM (inactive)	1860 µM (inactive)	2090 µM (inactive)
Clc1cc2nsnc2c(Cl)n1	24.7 µM (inactive)		17.3 µM (inactive)	14.4 µM (inactive)	15.6 µM (inactive)	17.5 µM (inactive)	20.3 µM (inactive)		
CCOC(=O)C1S/C(=N\c2ccc(Cl)cc2Cl)N=C1C (stereo not given)	86.5 µM (inactive)		39.5 µM (inactive)	75.2 µM (inactive)	33.1 µM (inactive)	> 100 µM (inactive)	73.6 µM (inactive)		
N#CC1C(=O)C(=O)N(c2ccccc2)C1=O (stereo not given)	> 100 µM (inactive)	> 100 µM (inactive)	> 100 µM (inactive)	> 100 µM (inactive)	> 100 µM (inactive)	> 100 µM (inactive)			
CC1=C(C(=O)NCc2ccccc2)C(c2ccco2)C(C(=O)NCc2ccccc2)=C(C)N1			> 100 µM (inactive)	42.6 µM (inactive)	48.5 µM (inactive)	> 100 µM (inactive)	> 100 µM (inactive)		
CC12CC3CC(C1)CC(N=[N+]=[N-])(C3)C2	> 100 µM (inactive)	> 100 µM (inactive)	> 100 µM (inactive)	> 100 µM (inactive)	> 100 µM (inactive)	> 100 µM (inactive)	> 100 µM (inactive)		
C=CC1(C)CCC2=C(CCC3C(C)(C(=O)OC)CCCC23C)C1=O (stereo not given)	18.7 µM (inactive)	16.2 µM (inactive)		18.5 µM (inactive)	15.3 µM (inactive)		18.5 µM (inactive)		
COc1ccc(N(CC(=O)O)S(=O)(=O)c2ccccc2)cc1	> 100 µM (inactive)	> 100 µM (inactive)	> 100 µM (inactive)	> 100 µM (inactive)		> 100 µM (inactive)	> 100 µM (inactive)		
CC(C)c1oc(=O)cc2c1C(O)C1OC(=O)C3(C)C(O)C4OC4C2(C)C13 (stereo not given) [NAGILACTONE]	1.26 µM (inactive)		0.703 µM (active)		1.13 µM (inactive)	3.48 µM (inactive)	1.23 µM (inactive)		
